We go through one compound from patent US20230107770A1, “METHOD OF ENHANCING IMMUNOTHERAPY USING ER STRESS PATHWAY INHIBITORS” (H. LEE MOFFITT CANCER CENTER AND RESEARCH INSTITUTE, INC., priority 2020, published 2023).

One test deals with ID8-Defb29/Vegfa tumors. As to the kind of experiment: Orthotopic ID8-Defb29/Vegfa ovarian tumor model treated with MKC8866. The format is in vivo, mice. The text has this:
(§1) FIGS. 19A, 19B, 19C, 19D, 19E, and 19F show Inhibition of IRE1α-XBP1 blunts tumor growth and activates effector T cell activity in tumors. […] Pictures denote the content of hemorrhagic ascites. […] FIGS. 19D, 19E, and 19F show the frequency of T cell populations in peritoneal tumors from ID8-Defb29/Vegfa-bearing mice treated with MKC8866 for two weeks. ***P<0.0001, **P<0.001 (Student's t-test). N=two repeats with a total of 8-10 mice per group.
(§2) We optimized a therapeutic scheme wherein female mice bearing orthotropic ID8-Defb29/Vegfa tumors for 7 days were treated daily for two weeks with vehicle or MKC8866, a novel small-molecule inhibitor that selectively blocks the RNase domain of IRE1α, impeding the generation of XBP1s.

For test [1], the system named is IRE1α-generated Xbp1s mRNA. Nature of the test: Xbp1s mRNA in peritoneal leukocytes of ID8-Defb29/Vegfa-bearing mice. The format is in vivo. The note with it: MKC8866 300 mg/kg; leukocytes isolated 12 h later.
Source text: as §1, §2

The next test concerns human FSH-CER T cells. As to the kind of experiment: Expansion of IL-2-supplemented human FSH-CER T cells with ER stress inhibitors. It is filed as cell-based. The note with it: treatment for 5 days. As for the experimental part:
The role of the PERK-Chop in the expansion of tumor TRM cells using conditional T cell Chop-null mice was evaluated. In agreement with the inhibitory effect of Chop in TRM development, higher frequency of TRM cells was detected in tumors from T cell-Chop^KO mice compared to controls (FIG. 23A). Next, we tested the effect of the inhibition of PERK (AMG-44) and IRE 1α (MKC8866) during the expansion of IL-2-supplemented human FSH-CER T cells. […] Also, we evaluated the therapeutic effect of the combination of ER stress-targeting therapy and FSH-CER. Thus, mice bearing FSHR+-ID8-Defb29/Vegfa ovarian tumors for 7 days received daily treatments with MKC8866 (i.p., 300 mg/kg) or AMG-44 (i.p. 12 mg/kg) for one-week, and i.p. transfer of FSH-CER T cells at days 7 and 14 post-tumor challenge. […] We postulate that treatments for longer time periods with ER stress inhibitors will further potentiate the effect of FSH-CER T cells

The subject of test [2] is FSHR+-ID8-Defb29/Vegfa ovarian tumors. Nature of the test: ER stress-targeting therapy combined with FSH-CER T cells in ovarian tumor-bearing mice. The note with it: MKC8866 i.p. 300 mg/kg or AMG-44 i.p. 12 mg/kg daily for one week; FSH-CER T cells days 7 and 14. It is filed as in vivo. As for the experimental part:
The role of the PERK-Chop in the expansion of tumor TRM cells using conditional T cell Chop-null mice was evaluated. In agreement with the inhibitory effect of Chop in TRM development, higher frequency of TRM cells was detected in tumors from T cell-Chop^KO mice compared to controls (FIG. 23A). Next, we tested the effect of the inhibition of PERK (AMG-44) and IRE 1α (MKC8866) during the expansion of IL-2-supplemented human FSH-CER T cells. […] Also, we evaluated the therapeutic effect of the combination of ER stress-targeting therapy and FSH-CER. […]
Activation of the UPR in cancer cells mediates adaptation processes in the TME, whereas UPR priming in tumor-myeloid cells promotes their immunoregulatory activity. […] As main readouts of therapeutic efficacy, we will monitor tumor burden, overall survival, and tumor CER-T cell infiltration, persistence, and cytotoxic capacity (Exp. C.2.1.1). […] Additionally, we will sort DCs and MDSC from tumor sites and lymphoid organs to quantify the expression of ER stress gene markers, their ability to impair T cell proliferation and IFNγ production, and the levels of the UPR-related immunoinhibitory factors IL-6, PGE2, Cox-2, mPGES-1, and Arginase I. All required methods are established by our groups. […]

Entries after “also recorded” stand apart in the source; their conditions may differ.

As to `COc1cc2c(C)c(CC(=O)N3CCOCC3)c(=O)oc2c(C=O)c1O` [MKC8866], the “PD-1 in intra-tumoral CD8+ T cells” value in the test with ID8-Defb29/Vegfa tumors (MKC8866-treated mice vs vehicle) was “upregulation of PD-1; also recorded: substantial elevation of the immune checkpoint PD-1”. Besides, in the test with ID8-Defb29/Vegfa tumors (MKC8866 daily for two weeks vs vehicle), the “generation of hemorrhagic ascites” value is reported as “impaired generation of hemorrhagic ascites”. Also, the malignant progression entry in the test with ID8-Defb29/Vegfa tumors (MKC8866 daily for two weeks vs vehicle, weight gain) is on record as “delayed malignant progression”. In addition, in the test with ID8-Defb29/Vegfa tumors (MKC8866 for two weeks), the “capacity of intra-tumoral CD8+ T cells to produce IFNγ and TNFα in situ” value is “augmenting their capacity to produce both IFNγ and TNFα in situ”; the “proportion of proliferating (Ki67+) antigen-experienced (CD44+) CD8+ T cells infiltrating tumors” value was “increased the proportion”. In addition, the “levels of IRE1α-generated Xbp1s mRNA in peritoneal leukocytes” value in test [1] was “rapidly and significantly decreased”. The “frequency of FSH-CER TRM cells” value in the test with human FSH-CER T cells is listed as “Higher frequency of FSH-CER TRM cells”. Further, the “survival of hosts receiving FSH-CER T cells plus inhibitor” value in test [2] is listed as “Prolonged survival”.
